Test results from ChEMBL document CHEMBL1142530, “Chalcogenopyrylium dyes as inhibitors/modulators of P-glycoprotein in multidrug-resistant cells” (Bioorg Med Chem, 2008).
Calls of active or inactive are those of the source. The calls are words filed in the database; no cut-off is given here.

How the values were obtained:
[1] = Octanol-water partition coefficient, log P after 5 hrs by shake flask method; format: physicochemical
[2] = Inhibition of verapamil-induced ATPase activity in lipid activated mouse P-glycoprotein mdr3 cys-less mutant assessed as ATP hydrolysis per ug of protein
Mus musculus [3] = species: Mus musculus; assay: Inhibition of verapamil-induced residual ATPase activity in lipid activated mouse P-glycoprotein mdr3 cys-less mutant assessed as ATP hydrolysis per ug of protein
MDCK-II [4] = assay: Apparent permeability from basolateral to apical side of MDCK2 cells over expressing MDR1 at 5 uM after 1 hr; format: functional, cell-based; conditions: Canis lupus familiaris
MDCK-II [5] = assay: Apparent permeability from apical to basolateral side of MDCK2 cells over expressing MDR1 at 5 uM after 1 hr in presence of 25 uM LSN335984; format: functional, cell-based; conditions: Canis lupus familiaris
MDCK-II [6] = assay: Apparent permeability from basolateral to apical side of MDCK2 cells over expressing MDR1 at 5 uM after 1 hr in presence of 25 uM LSN335984; format: functional, cell-based; conditions: Canis lupus familiaris
[7] = Inhibition of [3H]vinblastine transport in human PEAK stable cells over expressing MDR1 assessed as [3H]vinblastine accumulation after 2.5 mins; format: functional, cell-based
MDCK-II [8] = assay: Inhibition of [3H]vinblastine transport in MDCK2 cells over expressing MDR1 assessed as [3H]vinblastine accumulation after 2.5 mins; format: functional, cell-based; conditions: Canis lupus familiaris
[9] = (§1) Activity of verapamil-dependent ATPase in lipid activated mouse P-glycoprotein mdr3 cys-less mutant
Mus musculus [10] = species: Mus musculus; assay: as §1
MDCK-II [11] = assay: Enhancement of calcein-AM uptake in MDCK2 cells over expressing MDR1 after 20 mins; format: functional, cell-based; conditions: Canis lupus familiaris
[12] = target: T1, MDR1 (ABCB1, P-glycoprotein) (Homo sapiens, UniProt P08183); assay: Inhibition of MDR1 overexpressed in MDCK cells at 5 uM relative to LSN335984; format: cell-based; conditions: dog
T1 sequence (P08183 whole entry): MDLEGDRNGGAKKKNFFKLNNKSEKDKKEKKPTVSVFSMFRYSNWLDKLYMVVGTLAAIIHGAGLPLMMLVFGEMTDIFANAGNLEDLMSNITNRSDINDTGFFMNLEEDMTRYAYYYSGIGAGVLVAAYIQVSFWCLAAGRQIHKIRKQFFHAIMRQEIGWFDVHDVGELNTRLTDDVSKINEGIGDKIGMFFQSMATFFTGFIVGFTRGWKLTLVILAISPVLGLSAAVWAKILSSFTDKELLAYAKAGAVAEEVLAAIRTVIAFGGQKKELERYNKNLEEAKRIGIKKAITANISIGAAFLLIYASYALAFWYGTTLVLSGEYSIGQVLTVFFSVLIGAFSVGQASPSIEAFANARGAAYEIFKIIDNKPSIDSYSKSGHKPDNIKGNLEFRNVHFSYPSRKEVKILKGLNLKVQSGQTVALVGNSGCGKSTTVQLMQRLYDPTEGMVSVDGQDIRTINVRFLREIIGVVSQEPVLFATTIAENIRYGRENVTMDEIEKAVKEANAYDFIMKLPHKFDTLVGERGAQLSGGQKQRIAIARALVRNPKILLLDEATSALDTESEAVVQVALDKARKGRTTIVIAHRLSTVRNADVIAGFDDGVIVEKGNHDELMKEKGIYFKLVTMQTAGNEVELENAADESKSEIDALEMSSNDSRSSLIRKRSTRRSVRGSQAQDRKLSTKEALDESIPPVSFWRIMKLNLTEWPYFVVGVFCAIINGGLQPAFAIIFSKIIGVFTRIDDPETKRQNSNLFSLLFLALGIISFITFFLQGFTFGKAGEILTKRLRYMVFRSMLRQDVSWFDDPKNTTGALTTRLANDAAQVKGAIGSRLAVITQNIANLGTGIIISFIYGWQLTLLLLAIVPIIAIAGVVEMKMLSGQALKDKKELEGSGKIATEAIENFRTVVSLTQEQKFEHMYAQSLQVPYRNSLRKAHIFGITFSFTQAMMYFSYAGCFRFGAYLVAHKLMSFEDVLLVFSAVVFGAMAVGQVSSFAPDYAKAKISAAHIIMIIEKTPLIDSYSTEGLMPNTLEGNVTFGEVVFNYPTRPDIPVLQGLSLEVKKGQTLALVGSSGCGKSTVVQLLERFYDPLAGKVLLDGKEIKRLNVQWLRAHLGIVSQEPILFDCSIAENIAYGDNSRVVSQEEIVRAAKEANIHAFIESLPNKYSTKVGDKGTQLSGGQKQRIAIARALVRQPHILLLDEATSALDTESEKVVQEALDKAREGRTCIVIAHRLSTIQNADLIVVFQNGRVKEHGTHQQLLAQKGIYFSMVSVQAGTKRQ

[13] = target: ATP-dependent translocase ABCB1 (Homo sapiens, UniProt P08183); assay: (§2) Inhibition of MDR1 overexpressed in MDCK cells at 25 uM relative to LSN335984; format: cell-based; conditions: dog, mdck, 25 µM
Sequence of ATP-dependent translocase ABCB1 (P08183 whole entry): as above

MDCK-II [14] = assay: Passive apparent permeability across MDCK2 cells over expressing MDR1 in presence of 25 uM LSN335984 after 1 hr; format: functional, cell-based; conditions: Canis lupus familiaris
MDCK-II [15] = assay: Apparent permeability from apical to basolateral side of MDCK2 cells over expressing MDR1 after 1 hr; format: functional, cell-based; conditions: Canis lupus familiaris
MDCK-II [16] = assay: Apparent permeability from basolateral to apical side of MDCK2 cells over expressing MDR1 after 1 hr; format: functional, cell-based; conditions: Canis lupus familiaris
MDCK-II [17] = assay: Efflux ratio of permeability from basolateral to apical side to apical to basolateral side in MDCK2 cells over expressing MDR1 to permeability from basolateral to apical side to apical to basolateral side in MDCK2 cells over expressing MDR1 in presence of 25 uM LSN335984; format: functional, Canis lupus familiaris
Mus musculus [18] = species: Mus musculus; assay: Activity of verapamil-dependent ATPase in lipid activated cys-less mouse mdr3 P-glycoprotein assessed per ug of protein
Mus musculus [19] = species: Mus musculus; assay: Inhibition of verapamil-induced specific ATPase activity in lipid activated mouse P-glycoprotein mdr3 cys-less mutant assessed as ATP hydrolysis per ug of protein at 100 uM
DNA = assay: Binding affinity to calf thymus DNA relative to control; format: nucleic-acid assay; conditions: Bos taurus
[20] = Binding affinity to P-glycoprotein in presence of Escherichia coli sham lipids
[21] = target: T1, MDR1 (ABCB1, P-glycoprotein); assay: as §2; format: cell-based; conditions: dog, MDCK-MDR1
Mus musculus [22] = species: Mus musculus; assay: Inhibition of verapamil-induced ATPase activity in lipid activated mouse P-glycoprotein mdr3 cys-less mutant assessed as ATP hydrolysis at 100 uM

SMILES: c1ccc(-c2cc(-c3ccc(N4CCOCC4)cc3)[s+]c(-c3ccc(N4CCOCC4)cc3)c2)cc1
- logP at 5 h [1]: 1.3
- IC50 [2]: 3.1 µM
- Activity (Mus musculus [3]): 1 nmol/min

SMILES: Cc1cc(C)c(-c2cc(-c3ccc(N(C)C)cc3)[te+]c(-c3ccc(N(C)C)cc3)c2)c(C)c1.F[P-](F)(F)(F)(F)F
- permeability (MDCK-II [4]): 3%
- permeability (MDCK-II [5]): 7%
- permeability (MDCK-II [6]): 5%
- IC50 [7]: 4.3 µM
- IC50 (MDCK-II [8]): 9.6 µM
- logP at 5 h [1]: 2.4
- IC50 [2]: 1.2 µM
- Activity (Mus musculus [3]): 0.4 nmol/min
- Ki [9]: 0.04 µM
- Km (Mus musculus [10]): 16 µM
- EC50 (MDCK-II [11]): 5.4 µM
- inhibition at 5 µM [12]: 32%
- inhibition (INH) [13]: 230%
- Papp (MDCK-II [14]): 0.48 ×10⁻⁶ cm/s
- permeability (MDCK-II [15]): 0.85 ×10⁻⁶ cm/s
- permeability (MDCK-II [16]): 0.42 ×10⁻⁶ cm/s
- Ratio (MDCK-II [17]): 1.4
- Vmax (Mus musculus [18]): 2.67 nmol/min
- Activity (Mus musculus [19]): 0.44 nmol/min

SMILES: Cc1cc(-c2ccc(N(C)C)cc2)cc(-c2ccc(N(C)C)cc2)[s+]1.[I-]
- permeability (MDCK-II [4]): 25%
- permeability (MDCK-II [5]): 24%
- permeability (MDCK-II [6]): 17%
- logP at 5 h [1]: 0.6
- IC50 [2]: 15 µM
- Activity (Mus musculus [3]): 0.5 nmol/min
- Activity (DNA): > 60
- Kapp [20]: 4.5 ×10⁻⁶ M
- EC50 (MDCK-II [11]): 16 µM
- inhibition at 5 µM [12]: 13%
- inhibition at 25 µM [21]: 74%
- Papp (MDCK-II [14]): 0.42 ×10⁻⁶ cm/s
- permeability (MDCK-II [15]): 0.58 ×10⁻⁶ cm/s
- permeability (MDCK-II [16]): 5.1 ×10⁻⁶ cm/s
- Ratio (MDCK-II [17]): 14
- Activity (Mus musculus [19]): 0.48 nmol/min

SMILES: CN(C)c1ccc(-c2cc(-c3ccc(N)cc3)[se+]c(-c3ccc(N)cc3)c2)cc1.F[P-](F)(F)(F)(F)F
- permeability (MDCK-II [4]): 12%
- permeability (MDCK-II [5]): 14%
- permeability (MDCK-II [6]): 10%
- logP at 5 h [1]: 2.2
- IC50 [2]: > 100 µM
- Activity (Mus musculus [3]): 2.5 nmol/min
- EC50 (MDCK-II [11]): 25 µM
- Activity (Mus musculus [22]): inactive
- inhibition at 5 µM [12]: 6%
- inhibition at 25 µM [21]: 29%
- Papp (MDCK-II [14]): 0.28 ×10⁻⁶ cm/s
- permeability (MDCK-II [15]): 0.34 ×10⁻⁶ cm/s
- permeability (MDCK-II [16]): 4.5 ×10⁻⁶ cm/s
- Ratio (MDCK-II [17]): 17

SMILES: CN(C)c1ccc(-c2cc(-c3ccc(N(C)C)cc3)[s+]c(C(C)(C)C)c2)cc1.[I-]
- permeability (MDCK-II [4]): 37%
- permeability (MDCK-II [5]): 44%
- permeability (MDCK-II [6]): 25%
- logP at 5 h [1]: 1.5
- IC50 [2]: 0.88 µM
- Activity (Mus musculus [3]): 1.4 nmol/min
- Activity (DNA): > 60
- Kapp [20]: 4.7 ×10⁻⁷ M
- EC50 (MDCK-II [11]): 7.1 µM
- inhibition at 5 µM [12]: 25%
- inhibition at 25 µM [21]: 60%
- Papp (MDCK-II [14]): 0.34 ×10⁻⁶ cm/s
- permeability (MDCK-II [15]): 0.53 ×10⁻⁶ cm/s
- permeability (MDCK-II [16]): 34 ×10⁻⁶ cm/s
- Ratio (MDCK-II [17]): 134
- Activity (Mus musculus [19]): 0.7 nmol/min

SMILES: Cc1cc(-c2ccc(N(C)C)cc2)[s+]c(-c2ccc(N(C)C)cc2)c1
- logP at 5 h [1]: 1.2
- IC50 [2]: 5.7 µM
- Activity (Mus musculus [3]): 0.9 nmol/min

SMILES: CN(C)c1ccc(-c2cc(-c3ccc(N(C)C)cc3)[se+]c(C(C)(C)C)c2)cc1.[I-]
- permeability (MDCK-II [4]): 26%
- permeability (MDCK-II [5]): 37%
- permeability (MDCK-II [6]): 23%
- logP at 5 h [1]: 1.6
- EC50 (MDCK-II [11]): 6.7 µM
- inhibition at 5 µM [12]: 23%
- inhibition at 25 µM [21]: 67%
- Papp (MDCK-II [14]): 0.28 ×10⁻⁶ cm/s
- permeability (MDCK-II [15]): 0.23 ×10⁻⁶ cm/s
- permeability (MDCK-II [16]): 29 ×10⁻⁶ cm/s
- Ratio (MDCK-II [17]): 161

SMILES: Cc1cc(C)c(-c2cc(-c3ccc(N(C)C)cc3)[s+]c(-c3ccc(N(C)C)cc3)c2)c(C)c1
- logP at 5 h [1]: 2.1
- IC50 [2]: 71 µM
- Activity (Mus musculus [3]): 0 nmol/min
- Activity (Mus musculus [19]): 0.3 nmol/min

SMILES: CN(C)c1ccc(-c2cc(-c3ccc(N4CCOCC4)cc3)[se+]c(-c3ccc(N4CCOCC4)cc3)c2)cc1
- logP at 5 h [1]: 2.3
- IC50 [2]: 55 µM
- Activity (Mus musculus [3]): 0.4 nmol/min

SMILES: CCCc1cc(-c2ccc(N(C)C)cc2)cc(-c2ccc(N(C)C)cc2)[s+]1.[I-]
- permeability (MDCK-II [4]): 11%
- permeability (MDCK-II [5]): 8%
- permeability (MDCK-II [6]): 11%
- logP at 5 h [1]: 1.2
- IC50 [2]: > 100 µM
- Activity (Mus musculus [3]): 2.5 nmol/min
- Activity (DNA): > 60
- Kapp [20]: 2.2 ×10⁻⁶ M
- EC50 (MDCK-II [11]): 9.8 µM
- Activity (Mus musculus [22]): inactive
- inhibition at 5 µM [12]: 15%
- inhibition at 25 µM [21]: 87%
- Papp (MDCK-II [14]): 2.2 ×10⁻⁶ cm/s
- permeability (MDCK-II [15]): 0.15 ×10⁻⁶ cm/s
- permeability (MDCK-II [16]): 37 ×10⁻⁶ cm/s
- Ratio (MDCK-II [17]): 390
- Activity (Mus musculus [19]): 1.37 nmol/min

SMILES: Nc1ccc(-c2cc(-c3ccc(N4CCOCC4)cc3)cc(-c3ccc(N4CCOCC4)cc3)[s+]2)cc1
- logP at 5 h [1]: 2.1
- IC50 [2]: 11 µM
- Activity (Mus musculus [3]): 0.7 nmol/min

SMILES: CN(C)c1ccc(-c2cc(-c3ccccc3)[s+]c(-c3ccc(N)cc3)c2)cc1.F[P-](F)(F)(F)(F)F
- permeability (MDCK-II [4]): 24%
- permeability (MDCK-II [5]): 19%
- permeability (MDCK-II [6]): 20%
- logP at 5 h [1]: 0
- IC50 [2]: 5.3 µM
- Activity (Mus musculus [3]): 0.9 nmol/min
- EC50 (MDCK-II [11]): 14 µM
- inhibition at 5 µM [12]: 7%
- inhibition at 25 µM [21]: 14%
- Papp (MDCK-II [14]): 0.31 ×10⁻⁶ cm/s
- permeability (MDCK-II [15]): 0.37 ×10⁻⁶ cm/s
- permeability (MDCK-II [16]): 17 ×10⁻⁶ cm/s
- Ratio (MDCK-II [17]): 70

SMILES: c1ccc(-c2cc(-c3ccc(N4CCOCC4)cc3)cc(-c3ccc(N4CCOCC4)cc3)[s+]2)cc1
- logP at 5 h [1]: 2.1
- IC50 [2]: 30 µM
- Activity (Mus musculus [3]): 1 nmol/min

SMILES: CN(C)c1ccc(-c2cc(-c3ccc(N)cc3)[s+]c(-c3ccc(N(C)C)cc3)c2)cc1.F[P-](F)(F)(F)(F)F
- permeability (MDCK-II [4]): 19%
- permeability (MDCK-II [5]): 16%
- permeability (MDCK-II [6]): 17%
- logP at 5 h [1]: 2.2
- IC50 [2]: 0.7 µM
- Activity (Mus musculus [3]): 1.6 nmol/min
- EC50 (MDCK-II [11]): 35 µM
- inhibition at 5 µM [12]: 2%
- inhibition at 25 µM [21]: 16%
- Papp (MDCK-II [14]): 3.2 ×10⁻⁶ cm/s
- permeability (MDCK-II [15]): 5.3 ×10⁻⁶ cm/s
- permeability (MDCK-II [16]): 4.2 ×10⁻⁶ cm/s
- Ratio (MDCK-II [17]): 1.6
- Activity (Mus musculus [19]): 0.93 nmol/min

SMILES: CCc1cc(-c2ccc(N(C)C)cc2)cc(-c2ccc(N(C)C)cc2)[s+]1
- logP at 5 h [1]: 0.1
- IC50 [2]: 1 µM
- Activity (Mus musculus [3]): 1.3 nmol/min
- Activity (Mus musculus [19]): 0.74 nmol/min

SMILES: CN(C)c1ccc(-c2cc(-c3cccs3)cc(-c3ccc(N(C)C)cc3)[te+]2)cc1
- logP at 5 h [1]: 2.2
- IC50 [2]: 7.9 µM
- Activity (Mus musculus [3]): 0.9 nmol/min

SMILES: CN(C)c1ccc(-c2cc(-c3ccccc3)[se+]c(-c3ccc(N)cc3)c2)cc1.F[P-](F)(F)(F)(F)F
- permeability (MDCK-II [4]): 18%
- permeability (MDCK-II [5]): 18%
- permeability (MDCK-II [6]): 13%
- logP at 5 h [1]: 0.8
- EC50 (MDCK-II [11]): 20 µM
- inhibition at 5 µM [12]: 5%
- inhibition at 25 µM [21]: 22%
- Papp (MDCK-II [14]): 0.28 ×10⁻⁶ cm/s
- permeability (MDCK-II [15]): 0.35 ×10⁻⁶ cm/s
- permeability (MDCK-II [16]): 12 ×10⁻⁶ cm/s
- Ratio (MDCK-II [17]): 57
